One assay deals with KMS12PE Bcl2 F104L. The assay can be described thus: In vitro cytotoxicity CellTiterGlo 72 h, KMS12PE Bcl2 F104L. It is filed as cell-based. Particulars: Homo sapiens, KMS-12-PE, read-out: C50 nM, KMS12PE Bcl2 F104L. On the procedure: (§1) KMS-12-PE (ACC 606) were purchased from the Leibniz-Institute DSMZ (Braunschweig, Germany) and were grown at 37° C. in a humidified atmosphere with 5% CO2 in media recommended by the suppliers. Lentiviral particles containing Bcl-2 wild type (also named “Bcl2 WT”), Bcl-2 mutated on G101V (also named “Bcl2 G101V”), Bcl-2 mutated on D103Y (also named “Bcl2 D103Y”), Bcl-2 mutated on D103V (also named “Bcl2 D103V”), Bcl-2 mutated on D103E (also named “Bcl2 D103E”), Bcl-2 mutated on F104I (also named “Bcl2 F104I”), Bcl-2 mutated on F104L (also named “Bcl2 F104L”), Bcl-2 mutated on D111A (also named “Bcl2 D111A”), Bcl-2 mutated on A113G (also named “Bcl2 A113G”), Bcl-2 mutated on R129L (also named “Bcl2 R129L”), Bcl-2 mutated on V156D (also named “Bcl2 V156D”) were cloned into pcLV-CMV-DEST-IRES-TagRFP. Lentiviral particles (1×10^6) were mixed with Polybrene at 8 μg/ml and transduced by spinoculation for 1 h at 32° C. and incubated overnight. After 8 days, TagRFP positive-cells were sorted by FACS. BCL2 expression was monitored by immunoblotting using anti-Flag and anti-BCL2 antibodies. Cells were seeded into 96-wells plates and treated with 1:3.16 serial dilution of compounds (9 different concentrations). Cell viability was assessed using CellTiterGlo reagent following treatment for 72 h. Results were normalized to the viability of cells without compounds (control wells). The C50 values were calculated using nonlinear regression algorithms in XCell software.

The next assay concerns KMS12PE. As to the kind of experiment: In vitro cytotoxicity CellTiterGlo 72 h, KMS12PE. In kind it is cell-based. The settings on record: Homo sapiens, KMS-12-PE, read-out: C50 nM, KMS12PE. On the procedure:
as §1

For a further assay, the system named is KMS12PE Bcl2 D103V. The assay can be described thus: In vitro cytotoxicity CellTiterGlo 72 h, KMS12PE Bcl2 D103V. In kind it is cell-based. Particulars: Homo sapiens, KMS-12-PE, read-out: C50 nM, KMS12PE Bcl2 D103V. As for the experimental part:
as §1
Background: Cellular ATP, detected with luciferase, serves as a proxy for viable cell number.

Another assay relates to KMS12PE Bcl2 A113G. The assay can be described thus: In vitro cytotoxicity CellTiterGlo 72 h, KMS12PE Bcl2 A113G. Particulars: Homo sapiens, KMS-12-PE, read-out: C50 nM, KMS12PE Bcl2 A113G. In kind it is cell-based. As for the experimental part: as §1
The next assay deals with BCL2 D103Y (Homo sapiens, UniProt P10415, D103Y). As to the kind of experiment: TR-FRET competitive binding assay, BCL2 D103Y. The settings on record: Ki determined from IC50, read-out: TR_FRET EKI_Bcl2 D103Y. The method, boiled down:
(§2)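 Competitive TR-FRET displacement of fluorescein-PUMA peptide (2 or 20 nM) from 0.5 nM terbium-labelled N-terminal Halo-fusion BCL2 (1-207, wild type or mutant) or BCLXL (2-196), expressed in E. coli. Buffer 50 mM Hepes pH 7.5, 150 mM NaCl, 5% DMSO; 2 h at 23°C. 520/495 nm ratio fitted over 11 points for IC50, converted to Ki.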
For orientation: TR-FRET usually uses a lanthanide donor and a delayed reading to cut background.

A further assay concerns KMS12PE Bcl2 WT. The assay can be described thus: In vitro cytotoxicity CellTiterGlo 72 h, KMS12PE Bcl2 WT. Particulars: Homo sapiens, KMS-12-PE, read-out: C50 nM, KMS12PE Bcl2 WT. It is filed as cell-based. As for the experimental part:
as §1

A further assay concerns KMS12PE Bcl2 D103Y. As to the kind of experiment: In vitro cytotoxicity CellTiterGlo 72 h, KMS12PE Bcl2 D103Y. In kind it is cell-based. Particulars: Homo sapiens, KMS-12-PE, read-out: C50 nM, KMS12PE Bcl2 D103Y. As for the experimental part: as §1
The target in assay [1] is BCL2 G101V (Homo sapiens, UniProt P10415, G101V). As to the kind of experiment: TR-FRET competitive binding assay, BCL2 G101V. The settings on record: BCL2 G101V; Ki determined from IC50; read-out: TR_FRET EKI_Bcl2 G101V. The method, boiled down:
as §2

In assay [2] the test system is BCL2 G101V. The assay can be described thus: TR-FRET competitive binding assay, BCL2 G101V. The arrangement: species or system human. The settings on record: ratio Ki BCL2 G101V / Ki BCL2 WT. The method, boiled down:
as §2

For the next assay, the system named is KMS12PE Bcl2 D111A. As to the kind of experiment: In vitro cytotoxicity CellTiterGlo 72 h, KMS12PE Bcl2 D111A. In kind it is cell-based. The settings on record: Homo sapiens, KMS-12-PE, read-out: C50 nM, KMS12PE Bcl2 D111A. On the procedure: as §1

pIC50, pKi: −log10 of the molar value.

Regarding `Cc1c(N(C(=O)c2cc(-c3cc4c(cc3C(=O)N3Cc5ccccc5C[C@H]3C)CN(C(=O)Cc3ccc(OCCN5CCOCC5)cc3)CC4)n(C)c2C)c2ccc(O)cc2)cc(C#N)n1C` [Example 21, N-(5-cyano-1,2-dimethyl-1H-pyrrol-3-yl)-N-(4-hydroxyphenyl)-1,2-dimethyl-5-{7-[(3R)-3-methyl-1,2,3,4-tetrahydroisoquinoline-2-carbonyl]-2-(2-{4-[2-(morpholin-4-yl)ethoxy]phenyl}acetyl)-1,2,3,4-tetrahydroisoquinolin-6-yl}-1H-pyrrole-3-carboxamide], the pIC50 with KMS12PE Bcl2 F104L is 7.80; in the assay on KMS12PE it was 9.62; in the assay on KMS12PE Bcl2 D103V, 8.48; in the assay on KMS12PE Bcl2 A113G it was 8.39; in the assay on KMS12PE Bcl2 WT, 8.59; with KMS12PE Bcl2 D103Y it was 8.68. Besides, the pIC50 in the assay on KMS12PE Bcl2 D111A was 8.90. In addition, the results for the pKi at BCL2 D103Y and on BCL2 G101V [1] were 9.46 and 9.52, respectively. Also, in the assay on BCL2 G101V [2], the “TR_FRET EKI G101V/WT selectivty ratio” value turned out to be 3.1.

On to `Cc1c(N(C(=O)c2cc(-c3cc4c(cc3C(=O)N3Cc5ccccc5C[C@H]3C)CN(C(=O)Cc3ccc(OCCC5CCOCC5)cc3)CC4)n(C)c2C)c2ccc(O)cc2)cc(C#N)n1C` [Example 27, N-(5-cyano-1,2-dimethyl-1H-pyrrol-3-yl)-N-(4-hydroxyphenyl)-1,2-dimethyl-5-{7-[(3R)-3-methyl-1,2,3,4-tetrahydroisoquinoline-2-carbonyl]-2-(2-{4-[2-(oxan-4-yl)ethoxy]phenyl}acetyl)-1,2,3,4-tetrahydroisoquinolin-6-yl}-1H-pyrrole-3-carboxamide], for which the pIC50 with KMS12PE Bcl2 F104L was 8.26; in the assay with KMS12PE, 9.72; in the assay with KMS12PE Bcl2 D103V, 8.81; in the assay with KMS12PE Bcl2 A113G it was 8.55; in the assay on KMS12PE Bcl2 WT it was 8.82; in the assay on KMS12PE Bcl2 D103Y, 8.96. Besides, in the assay with KMS12PE Bcl2 D111A, the pIC50 is 9.07. For the same compound, the results for the pKi at BCL2 D103Y and at BCL2 G101V [1] were 9.14 and 8.92, respectively. The “TR_FRET EKI G101V/WT selectivty ratio” value with BCL2 G101V [2] stood at 1.5.

Take `Cc1c(N(C(=O)c2cc(-c3cc4c(cc3C(=O)N3Cc5ccccc5C[C@H]3CN3CCCCC3)CN(C(=O)Cc3ccc(OCCN5CCOCC5)cc3F)CC4)n(C)c2C)c2ccc(O)cc2)cc(C#N)n1C` [Example 43, N-(5-cyano-1,2-dimethylpyrrol-3-yl)-5-[2-(2-{2-fluoro-4-[2-(morpholin-4-yl)ethoxy]phenyl}acetyl)-7-{[(3S)-3-(piperidin-1-ylmethyl)-3,4-dihydro-1H-isoquinolin-2-yl]carbonyl}-3,4-dihydro-1H-isoquinolin-6-yl]-N-(4-hydroxyphenyl)-1,2-dimethylpyrrole-3-carboxamide]: the pIC50 with KMS12PE Bcl2 F104L was 8.07; with KMS12PE, 9.66; with KMS12PE Bcl2 D103V, 8.70; in the assay with KMS12PE Bcl2 A113G, 8.60; with KMS12PE Bcl2 WT, 8.74; in the assay with KMS12PE Bcl2 D103Y, 8.89. The pIC50 with KMS12PE Bcl2 D111A was 8.95. In addition, the pKi at BCL2 D103Y is 9.85; at BCL2 G101V [1] it was 9.70. Also, the “TR_FRET EKI G101V/WT selectivty ratio” value in the assay on BCL2 G101V [2] stood at 5.0.

On to `Cc1c(N(C(=O)c2cc(-c3cc4c(cc3C(=O)N3Cc5ccccc5C[C@H]3C)CN(C(=O)Cc3ccc(N5CCN6CCOC[C@@H]6C5)cc3F)CC4)n(C)c2C)c2ccc(O)cc2)cc(C#N)n1C` [Example 45, 5-[2-(2-{4-[(9aS)-octahydropyrazino[2,1-c][1,4]oxazin-8-yl]-2-fluorophenyl}acetyl)-7-[(3R)-3-methyl-1,2,3,4-tetrahydroisoquinoline-2-carbonyl]-1,2,3,4-tetrahydroisoquinolin-6-yl]-N-(5-cyano-1,2-dimethyl-1H-pyrrol-3-yl)-N-(4-hydroxyphenyl)-1,2-dimethyl-1H-pyrrole-3-carboxamide], for which the pIC50 was 7.65 with KMS12PE Bcl2 F104L; 9.49 with KMS12PE; 8.57 in the assay on KMS12PE Bcl2 D103V; 8.10 with KMS12PE Bcl2 A113G; 8.48 in the assay with KMS12PE Bcl2 WT; 9.70 in the assay on KMS12PE Bcl2 D103Y. In the assay on KMS12PE Bcl2 D111A, the pIC50 was 8.69. Further, the results for the pKi on BCL2 D103Y and at BCL2 G101V [1] were 9.82 and 9.40, respectively. Moreover, the “TR_FRET EKI G101V/WT selectivty ratio” value in the assay on BCL2 G101V [2] is 4.8.

Turning to `Cc1c(N(C(=O)c2cc(-c3cc4c(cc3C(=O)N3Cc5ccccc5C[C@H]3C)CN(C(=O)Cc3ccc(CCN5CCC(F)(F)CC5)cc3)CC4)n(C)c2C)c2ccc(O)cc2)cc(C#N)n1C` [Example 51, N-(5-cyano-1,2-dimethylpyrrol-3-yl)-5-[2-(2-{4-[2-(4,4-difluoropiperidin-1-yl)ethyl]phenyl}acetyl)-7-{[(3R)-3-methyl-3,4-dihydro-1H-isoquinolin-2-yl]carbonyl}-3,4-dihydro-1H-isoquinolin-6-yl]-N-(4-hydroxyphenyl)-1,2-dimethylpyrrole-3-carboxamide], the pIC50 in the assay with KMS12PE Bcl2 F104L was 7.23; in the assay with KMS12PE, 9.47; with KMS12PE Bcl2 D103V, 8.33; with KMS12PE Bcl2 A113G, 8.03; in the assay with KMS12PE Bcl2 WT it was 8.55; in the assay on KMS12PE Bcl2 D103Y, 8.55. The pIC50 in the assay with KMS12PE Bcl2 D111A is 8.49. Further, the results for the pKi at BCL2 D103Y and at BCL2 G101V [1] were 9.04 and 9.00, respectively. Besides, the “TR_FRET EKI G101V/WT selectivty ratio” value in the assay with BCL2 G101V [2] came out at 4.5.

As to `COC[C@@H]1Cc2ccccc2CN1C(=O)c1cc2c(cc1-c1cc(C(=O)N(c3ccc(O)cc3)c3cc(C#N)n(C)c3C)c(C)n1C)CCN(C(=O)Cc1ccc(OCCC3CCOCC3)cc1F)C2` [Example 52, N-(5-cyano-1,2-dimethylpyrrol-3-yl)-5-[2-(2-{2-fluoro-4-[2-(oxan-4-yl)ethoxy]phenyl}acetyl)-7-{[(3S)-3-(methoxymethyl)-3,4-dihydro-1H-isoquinolin-2-yl]carbonyl}-3,4-dihydro-1H-isoquinolin-6-yl]-N-(4-hydroxyphenyl)-1,2-dimethylpyrrole-3-carboxamide], the pIC50 with KMS12PE Bcl2 F104L is 7.95; with KMS12PE it was 9.68; in the assay with KMS12PE Bcl2 D103V, 8.56; in the assay with KMS12PE Bcl2 A113G, 8.40; with KMS12PE Bcl2 WT, 8.68; with KMS12PE Bcl2 D103Y it was 8.74. Also, the pIC50 with KMS12PE Bcl2 D111A is 8.92. The pKi on BCL2 D103Y is 9.64; at BCL2 G101V [1], 9.30. The “TR_FRET EKI G101V/WT selectivty ratio” value in the assay on BCL2 G101V [2] was 2.3.

As to `Cc1c(N(C(=O)c2cc(-c3cc4c(cc3C(=O)N3Cc5ccccc5C[C@H]3C)CN(C(=O)Cc3ccc(OCCN5CCC(F)CC5)cc3)CC4)n(C)c2C)c2ccc(O)cc2)cc(C#N)n1C` [Example 53, N-(5-cyano-1,2-dimethyl-1H-pyrrol-3-yl)-5-[2-(2-{4-[2-(4-fluoropiperidin-1-yl)ethoxy]phenyl}acetyl)-7-[(3R)-3-methyl-1,2,3,4-tetrahydroisoquinoline-2-carbonyl]-1,2,3,4-tetrahydroisoquinolin-6-yl]-N-(4-hydroxyphenyl)-1,2-dimethyl-1H-pyrrole-3-carboxamide], the pIC50 with KMS12PE Bcl2 F104L is 7.59; with KMS12PE it was 9.46; with KMS12PE Bcl2 D103V it was 8.27; in the assay with KMS12PE Bcl2 A113G, 8.25; in the assay on KMS12PE Bcl2 WT, 8.54; in the assay with KMS12PE Bcl2 D103Y it was 8.58. The pIC50 in the assay with KMS12PE Bcl2 D111A was 8.66. The results for the pKi on BCL2 D103Y and at BCL2 G101V [1] were 9.74 and 9.70, respectively. In addition, in the assay with BCL2 G101V [2], the “TR_FRET EKI G101V/WT selectivty ratio” value stood at 2.8.

For the origin of these results see patent publication US20250179047A1, “5-[7-(3,4-DIHYDRO-1H-ISOQUINOLINE-2-CARBONYL)-1,2,3,4 TETRAHYDROISOQUINOLIN-6-YL]-1H-PYRROLE-3-CARBOXAMIDE DERIVATIVES, PHARMACEUTICAL COMPOSITIONS CONTAINING THEM AND THEIR USES AS PRO-APOPTOTIC AGENTS” (LES LABORATOIRES SERVIER, priority 2022, published 2025).
